# Read-outs that look alike come from different tables or passages of the source.
# Key:
# [1] = test system: PC3 cells; test: Inhibition of PC3 cell low adsorption (adherent cell count, 4 h); type: cell-based; details: Homo sapiens, PC-3; 4 h treatment; read-out: IC50 against PC3 cell low adsorption
# Method: PC3 cells were seeded at 8000 cells/well. 4 h after the cells were treated with a compound, the number of adherent cells was counted. The inhibition percentage and IC50 of the compound were calculated compared to the DMSO group.
# [2] = In vivo pharmacokinetic experiment in CD-1 mice; details: mouse, plasma, CD-1 female mice; for Vd: read-out: Vdss
# Method: […] The mice were fasted for at least 12 h before the administration and given food 4 h after the administration, and they were given ad libitum access to water during the experiment.
# On the day of the experiment, animals in the intravenous group were given the corresponding compound by single injection via the tail vein at an administration volume of 10 mL/kg; and animals in the oral group were given the corresponding compound by single intragastric injection at an administration volume of 10 mL/kg. The animals were weighed before administration, and the administration volume was calculated according to the body weight. The sample collection time points were 0.083 h, 0.167 h, 0.5 h, 1 h, 2 h, 4 h, 8 h, and 24 h. About 200 μL of whole blood was collected through the orbital venous plexus at each time point and used to prepare plasma for concentration determination by high-performance liquid chromatography-tandem mass spectrometry (LC-MS/MS). The plasma concentrations were processed using a non-compartmental model of Winnolin pharmacokinetic software, and the pharmacokinetic parameters were calculated using a linear-log trapezoidal method.
# [3] = test system: PC3 cells; test: PC3 cell proliferation, 3D activity assay (3D culture, 14 days); type: cell-based, human; details: Homo sapiens, PC-3, 336 h, read-out: 3D inhibitory activity against PC3 cells IC50
# [4] = test system: PC3 cells; test: PC3 cell proliferation, 2D activity assay (Cell Titer-Lumi, 72 h); type: cell-based, human; details: Homo sapiens, PC-3, read-out: 2D inhibitory activity against PC3 cells IC50
# [5] = test system: Human pancreatic cancer Mia PaCa-2 cells; test: In vivo efficacy, Mia PaCa-2 xenograft in nude mice; parameters: species or system mouse; details: MiaPaCa-2 model, 25 mg/kg PO QD 21 days
# Method: (§1) The groups were as follows: 1) a solvent control group, 8 mice; and 2) a control compound group and a test compound group, 8 mice each. The mice in the solvent control group were intragastrically administered 0.5% CMC-Na twice a day; the mice in the compound groups were intragastrically administered 0.50% MC-Tween-80 suspension once a day. On Tuesday and Thursday each week, tumor volumes and body weight of the mice were measured, and the nude mice were sacrificed on day 21 after the administration. […] The toxicity of the compounds was evaluated according to the body weight of the mice.
# [6] = test system: phosphorylation at the FAK 397 site; test: Inhibition of Y397 phosphorylation in PC3 cells (ELISA); type: cell-based; details: Homo sapiens, PC-3, 3 h treatment, read-out: IC50 against Y397 phosphorylation
# Method: PC3 cells were seeded at 8000 cells/well. […] The inhibition percentage and IC50 of the compound were calculated compared to the DMSO group.
# [7] = test system: Human prostate cancer PC3 cells; test: In vivo efficacy, PC3 xenograft in nude mice; parameters: species or system mouse; details: PC-3 model, 25 mg/kg, QD (21 days), PO
# Method: as §1, with “0.5%” for “0.50%”
# [8] = biological target: FAK recombinant protein (Homo sapiens (Human), UniProt Q05397); test: Inhibitory activity against FAK enzyme (HTRF, TK substrate); type: biochemical
# Method: A compound serially diluted with DMSO was mixed with a FAK recombinant protein. After the mixture was left to stand at room temperature for 10 min, a biotin-labeled TK substrate (TK) and ATP were added. […] The inhibition percentage and IC50 of the compound were calculated compared to the DMSO control group.
# [9] = test system: Mouse colon cancer MC38 cells; test: In vivo efficacy, MC38 model in BALB/c mice, single drug and PD-1 combination; details: MC-38 model, single drug, 50 mg/kg, QD (21 days), PO
# Method: Female BALB/c mice (aged 6 weeks, 18-22 g) were provided by Vital River Laboratory Animal Technology Co., Ltd. (China) and used one week after quarantine and acclimation. All animals were kept in a room at 23±2° C. with a relative humidity of 50±5%, artificial lighting was provided from 08:00 to 20:00 every day, and the air was exchanged 13-18 times per hour.
# After being subcultured, the cells were collected when they reached the desired amount. The BALB/c mice were subcutaneously injected with 1×10^6 MC38 cells on the right side to form tumors. […] Administration was then started. Tumor volumes were measured with a caliper on day 3, day 7, day 10, day 14, day 17, and day 21 after the administration.
# The toxicity of the compounds was evaluated according to the body weight and state of the mice.
# [10] = intravenous, injection (1 mg/kg)
# FAK recombinant protein, sequence (Q05397 whole entry): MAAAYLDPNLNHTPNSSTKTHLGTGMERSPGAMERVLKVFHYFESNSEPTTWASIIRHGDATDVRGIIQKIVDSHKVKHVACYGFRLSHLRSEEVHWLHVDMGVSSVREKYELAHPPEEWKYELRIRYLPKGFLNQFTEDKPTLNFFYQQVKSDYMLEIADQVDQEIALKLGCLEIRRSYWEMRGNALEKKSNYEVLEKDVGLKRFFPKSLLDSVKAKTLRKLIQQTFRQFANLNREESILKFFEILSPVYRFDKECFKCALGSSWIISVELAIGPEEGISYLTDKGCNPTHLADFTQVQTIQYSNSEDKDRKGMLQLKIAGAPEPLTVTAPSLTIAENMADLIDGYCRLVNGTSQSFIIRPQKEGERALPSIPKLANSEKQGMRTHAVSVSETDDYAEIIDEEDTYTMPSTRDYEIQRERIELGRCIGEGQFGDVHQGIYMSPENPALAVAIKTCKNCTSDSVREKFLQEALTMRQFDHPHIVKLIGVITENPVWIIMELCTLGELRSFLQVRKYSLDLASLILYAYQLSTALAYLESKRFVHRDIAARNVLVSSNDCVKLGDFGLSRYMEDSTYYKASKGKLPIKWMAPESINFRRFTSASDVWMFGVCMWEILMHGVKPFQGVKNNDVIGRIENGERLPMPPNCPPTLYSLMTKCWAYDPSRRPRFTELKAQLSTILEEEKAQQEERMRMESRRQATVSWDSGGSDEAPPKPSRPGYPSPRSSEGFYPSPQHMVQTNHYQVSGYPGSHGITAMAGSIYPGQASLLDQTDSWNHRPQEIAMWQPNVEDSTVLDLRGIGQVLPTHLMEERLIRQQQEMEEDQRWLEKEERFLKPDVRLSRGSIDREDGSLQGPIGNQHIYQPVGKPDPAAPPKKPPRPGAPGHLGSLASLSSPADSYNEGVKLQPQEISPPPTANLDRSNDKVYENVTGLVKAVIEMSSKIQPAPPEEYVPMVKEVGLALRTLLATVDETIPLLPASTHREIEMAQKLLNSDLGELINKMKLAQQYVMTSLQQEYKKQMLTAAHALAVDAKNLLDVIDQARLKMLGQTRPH
SMILES,IC50 [1],AUC(0-t) ([2]; oral administration (10 mg/kg)),Cmax ([2]; oral administration (10 mg/kg)),Tmax ([2]; oral administration (10 mg/kg)),bioavailability ([2]; oral administration (10 mg/kg)),IC50 [3],IC50 [4],TGI(%) [5],IC50 [6],"AUC(0-t) ([2]; iv, injection (1 mg/kg))","clearance ([2]; iv, injection (1 mg/kg))","half-life ([2]; iv, injection (1 mg/kg))","Vd ([2]; iv, injection (1 mg/kg))",TGI(%) [7],IC50 [8],half-life ([2]; oral administration (10 mg/kg)),also measured
"COc1cc(C(=O)NC2CCN(C)CC2)ccc1Nc1ncc(C(F)(F)F)c(Oc2cccc3c2C(=O)N(C)C32CC2)n1 [Compound 3, 3-methoxy-4-((4-((2′-methyl-3′-oxospiro[cyclopropane-1,1′-isoindolin]-4′-yl)oxy)-5-(trifluoromethyl)pyrimidin-2-yl)amino)-N-(1-methylpiperidin-4-yl)benzamide]",3.14 nM,190 ng·h/mL,57.2 ng/mL,4 h,7.94%,0.45 nM,> 2000 nM,,,,,,,,,,"AUC(0-t) [2, 10]: 248 ng·h/mL; clearance [2, 10]: 67.1 mL/min/kg; half-life [2, 10]: 128 min; Vd [2, 10]: 6.14 L/kg"
COc1cc(C(=O)NC2CCN(C)CC2)c(F)cc1Nc1ncc(C(F)(F)F)c(Oc2cccc3c2C(=O)N(C)C32CC2)n1 [Compound 4],6.87 nM,2090 ng·h/mL,361 ng/mL,4 h,42.6%,2.01 nM,> 2000 nM,69.02%,0.025 nM,489 ng·h/mL,34 mL/min/kg,107 min,4.35 L/kg,61.48%,< 20 nM,,
COc1cc(N2CCN(C)CC2)ccc1Nc1ncc(C(F)(F)F)c(Oc2cccc3c2C(=O)N(C)C32CC2)n1 [Compound 73],5.01 nM,2890 ng·h/mL,624 ng/mL,0.5 h,59.3%,1.99 nM,> 10000 nM,,0.028 nM,414 ng·h/mL,40.2 mL/min/kg,116 min,5.67 L/kg,74.07%,< 20 nM,199 min,
COc1cc(N2CCC(N3CCN(C)CC3)CC2)ccc1Nc1ncc(C(F)(F)F)c(Oc2cccc3c2C(=O)N(C)C32CC2)n1 [Compound 78],5.83 nM,,,,,0.78 nM,> 10000 nM,,< 0.01 nM,,,,,,< 20 nM,,
"COc1cc(C(=O)NC2CCN(C)CC2)ccc1Nc1ncc(Cl)c(Oc2cccc3c2C(=O)N(C)C32CC2)n1 [Compound 114, 4-((5-chloro-4-((2′-methyl-3′-oxospiro[cyclopropane-1,1′-isoindolin]-4′-yl)oxy)pyrimidin-2-yl)amino)-3-methoxy-N-(1-methylpiperidin-4-yl)benzamide]",2.85 nM,,,,,1.09 nM,> 2000 nM,,0.39 nM,,,,,,< 20 nM,,
COc1cc(C(=O)NC2CCN(C)CC2)c(F)cc1Nc1ncc(Cl)c(Oc2cccc3c2C(=O)N(C)C32CC2)n1 [Compound 117],4.6 nM,7850 ng·h/mL,822 ng/mL,2 h,123%,5 to 50 nM,> 2000 nM,62.86%,0.7 nM,640 ng·h/mL,26.1 mL/min/kg,109 min,3.47 L/kg,,< 20 nM,133 min,
"COc1cc(N2CC3(CCN(C)CC3)C2)c(F)cc1Nc1ncc(C(F)(F)F)c(Oc2cccc3c2C(=O)N(C)C32CC2)n1 [Compound 120, 4′-((2-((5-fluoro-2-methoxy-4-(7-methyl-2,7-diazaspiro[3.5]nonan-2-yl)phenyl)amino)-5-(trifluoromethyl)pyrimidin-4-yl)oxy)-2′-methylspiro[cyclopropane-1,1′-isoindolin]-3′-one]",1.46 nM,6120 ng·h/mL,522 ng/mL,4 h,72%,0.46 nM,> 2000 nM,,< 0.01 nM,850 ng·h/mL,19.6 mL/min/kg,281 min,6.15 L/kg,90.83%,< 20 nM,316 min,TGI(%) [9]: 66.33%
"COc1cc(N2CC3(CCN(C)CC3)C2)c(F)cc1Nc1ncc(Cl)c(Oc2cccc3c2C(=O)N(C)C32CC2)n1 [Compound 137, 4′-((5-chloro-2-((5-fluoro-2-methoxy-4-(7-methyl-2,7-diazaspiro[3.5]nonan-2-yl)phenyl)amino)pyrimidin-4-yl)oxy)-2′-methylspiro[cyclopropane-1,1′-isoindolin]-3′-one]",1.71 nM,12400 ng·h/mL,810 ng/mL,4 h,89.4%,1.4 nM,> 10000 nM,87.68%,0.08 nM,1390 ng·h/mL,12 mL/min/kg,220 min,3.71 L/kg,76.39%,< 20 nM,251 min,
COc1cc(N2CCC(N3CCN(C)CC3)CC2)ccc1Nc1ncc(Cl)c(Oc2cccc3c2C(=O)N(C)C32CC2)n1 [Compound 139],5.2 nM,,,,,1.7 nM,> 2000 nM,,0.56 nM,,,,,,< 20 nM,,
"COc1cc(N2CC3(CCN(C)CC3)C2)ccc1Nc1ncc(Br)c(Oc2cccc3c2C(=O)N(C)C32CC2)n1 [Compound 177, 4′-((5-bromo-2-((2-methoxy-4-(7-methyl-2,7-diazaspiro[3.5]nonan-2-yl)phenyl)amino)pyrimidin-4-yl)oxy)-2′-methylspiro[cyclopropane-1,1′-isoindolin]-3′-one]",1.86 nM,7450 ng·h/mL,815 ng/mL,2 h,67%,0.38 nM,> 2000 nM,,0.02 nM,1110 ng·h/mL,15 mL/min/kg,353 min,7.51 L/kg,,< 20 nM,202 min,
COc1cc(N2CC3(CCN(C)CC3)C2)c(F)cc1Nc1ncc(Br)c(Oc2cccc3c2C(=O)N(C)C32CC2)n1 [Compound 178],6.22 nM,,,,,0.38 nM,> 2000 nM,82.41%,,,,,,,< 20 nM,,
"COc1cc(N2CC3(CCN(C)CC3)C2)ccc1Nc1ncc(C#N)c(Oc2cccc3c2C(=O)N(C)C32CC2)n1 [Compound 196, 2-((2-methoxy-4-(7-methyl-2,7-diazaspiro[3.5]nonan-2-yl)phenyl)amino)-4-((2′-methyl-3′-oxospiro[cyclopropane-1,1′-isoindolin]-4′-yl)oxy)pyrimidine-5-carbonitrile]",1.6 nM,,,,,0.33 nM,> 2000 nM,,0.05 nM,,,,,,< 20 nM,,

# From patent US20250154134A1, “COMPOUND AS FAK INHIBITOR AND USE THEREOF” (WIGEN BIOMEDICINE TECHNOLOGY (SHANGHAI) CO., LTD., priority 2022, published 2025)
